From US20240408169A1 (priority 2023, published 2024)
pIC50: −log10 of the molar value. *1 amine or outer side, *2 acyl side, *3 side chain or, on linkers, in order; H or OH if unused. Where a SMILES comes first, the peptide text is derived from it. Bridges are numbered along the chain shown (N, C = ends). [ ]: non-standard residue; d: D form. The star is where a group is joined. X106 = CN([C@@H](Cc1cc(Cl)ccc1-c1ccc(N2CCN(Cc3ccccn3)CC2)cc1)C(=O)[*:2])[*:1]; NMeAla(5-Cl-2-cPrO-3-pyridyl) = CN[C@@H](Cc1cc(Cl)cnc1OC1CC1)C(=O)O; X81 = COc1cc(N2CCOCC2)ccc1-c1ccc(Cl)cc1C[C@@H](C(=O)[*:2])N(C)[*:1]; X35 = CN([C@@H](Cc1cc(Cl)ccc1-c1cnc2ccnn2c1)C(=O)[*:2])[*:1]; NMehhhLys(Me) = CN([C@@H](CCCCCCCN(C)[*:3])C(=O)[*:2])[*:1]; X22 = CN([C@@H](Cc1cc(Cl)ccc1-c1cnn(C)c1)C(=O)[*:2])[*:1]; Cyclobutanecarbonyl(1-CF3) = O=C(C1(C(F)(F)F)CCC1)*; cBuCO(3,3-F2-1-CF3) = O=C(C1(C(F)(F)F)CC(F)(F)C1)*; Pro(trans-4-F) = O=C(O)[C@@H]1C[C@@H](F)CN1; X27 = O=C([C@]1(C(F)(F)F)CCCCO1)*; Gly(cPr) = N[C@H](C(=O)O)C1CC1

Columns and labels:
[1] = system: NCI-H1048 cells; test: MTT proliferation assay, NCI-H1048; type: cell-based; details: 5 days compound exposure, 1:3 serial dilution starting at 10 μM;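 further: Dose-response in 96-well plates over 8 or 10 concentration points, with exposure spanning 3-4 cell doublings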
[2] = target: T1, CyclinE1/CDK2 (Homo sapiens, UniProt P24864); test: Fluorescence Polarization (FP) competitive binding assay, Cyclin E1/Cdk2; details: 10 nM Cyclin E1/Cdk2, 2 nM FAM probe; average of 2-3 independent experiments; read-out: Cyclin E FP IC50;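 further: readings taken after two-hour equilibration at room temperature in HEPES buffer with NaCl, DTT, NP-40 and BSA, IC50 fitted from eight-concentration serial dilution series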
T1 construct: purchased Eurofins, discovery 14-475

[3] = system: WI-38 cells; test: MTT proliferation assay, WI-38; type: cell-based; details: 3 days compound exposure, 1:3 serial dilution starting at 10 μM;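 further: Eight- or ten-point dilution series, with exposure length chosen to span about three to four cell doublings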
[4] = system: OVCAR3 cells; test: MTT proliferation assay, OVCAR3; type: cell-based; details: 5 days compound exposure, 1:3 serial dilution starting at 10 μM;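 further: compound given as an 8- or 10-point series, one day after plating, with exposure covering roughly 3-4 cell doublings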
[5] = target: T2, CyclinB1/CDK1 (Homo sapiens, UniProt P14635); test: Fluorescence Polarization (FP) competitive binding assay, Cyclin B1/Cdk1; details: 10 nM Cyclin B1/Cdk1, 2 nM FAM probe; average of 2-3 independent experiments; read-out: Cyclin B FP IC50;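 further: fluorescence polarization read after equilibration at room temperature, with IC50 taken from serially diluted dose-response curves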
T2 construct: purchased Eurofins, discovery 14-450

[6] = target: T3, CyclinA2/CDK2 (Homo sapiens, UniProt P20248); test: Fluorescence Polarization (FP) competitive binding assay, Cyclin A2/Cdk2; details: 8 nM Cyclin A2/Cdk2, 2 nM FAM probe; average of 2-3 independent experiments; read-out: Cyclin A FP IC50;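 further: plates equilibrated two hours at room temperature before polarization reading, IC50 fitted from eight-concentration compound titration curves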
T3 construct: purchased CRELUX Protein Services

**Q.** With `COc1cc(N2CCOCC2)ccc1-c1ccc(Cl)cc1C[C@H]1C(=O)N(C)CCCCCCC[C@H](N(C)C(=O)[C@@H](NC(=O)[C@@H]2C[C@@H](F)CN2C(=O)C2(C(F)(F)F)CC(F)(F)C2)C2CC2)C(=O)N[C@@H](CC(C)C)C(=O)N1C` [Example 361] ({cBuCO(3,3-F2-1-CF3)}-[Pro(trans-4-F)][Gly(cPr)][NMehhhLys(Me)]L[X81]; lactam 3-C) as the compound, how does the GI50 [1] read?
**A.** 30 nM

**Q.** And the pIC50 [2]?
**A.** 5.74

**Q.** And the GI50 [3]?
**A.** 14300 nM

**Q.** And the GI50 [4]?
**A.** 10 nM

**Q.** And the pIC50 [5]?
**A.** 7.70

**Q.** And the pIC50 [6]?
**A.** 7.30

**Q.** Which GI50 [1] does the source give for `CC(C)C[C@@H]1NC(=O)[C@@H](N(C)C(=O)[C@@H](NC(=O)[C@@H]2C[C@@H](F)CN2C(=O)[C@]2(C(F)(F)F)CCCCO2)C2CC2)CCCCCCCN(C)C(=O)[C@H](Cc2cc(Cl)ccc2-c2cnn(C)c2)N(C)C1=O` [Example 183] (X27-[Pro(trans-4-F)][Gly(cPr)][NMehhhLys(Me)]L[X22]; lactam 3-C) here?
**A.** 10 nM

**Q.** And the pIC50 [2]?
**A.** 6.55

**Q.** What about the GI50 [3] of the same compound?
**A.** 5070 nM

**Q.** What about the GI50 [4] of the same compound?
**A.** 20 nM

**Q.** And the pIC50 [5]?
**A.** 7.70

**Q.** And the pIC50 [6]?
**A.** 7.52

**Q.** How did the GI50 [1] turn out when `CC(C)C[C@@H]1NC(=O)[C@@H](N(C)C(=O)[C@@H](NC(=O)[C@@H]2C[C@@H](F)CN2C(=O)C2(C(F)(F)F)CCC2)C2CC2)CCCCCCCN(C)C(=O)[C@H](Cc2cc(Cl)cnc2OC2CC2)N(C)C1=O` [Example 109] ({Cyclobutanecarbonyl(1-CF3)}-[Pro(trans-4-F)][Gly(cPr)][NMehhhLys(Me)]L[NMeAla(5-Cl-2-cPrO-3-pyridyl)]; lactam 3-C) was run?
**A.** 20 nM

**Q.** And the pIC50 [2]?
**A.** 6.77

**Q.** And the GI50 [3]?
**A.** 9520 nM

**Q.** What about the GI50 [4] of the same compound?
**A.** 20 nM

**Q.** And the pIC50 [5]?
**A.** 7.70

**Q.** And the pIC50 [6]?
**A.** 7.40

**Q.** How did the GI50 [1] turn out when `CC(C)C[C@@H]1NC(=O)[C@@H](N(C)C(=O)[C@@H](NC(=O)[C@@H]2C[C@@H](F)CN2C(=O)C2(C(F)(F)F)CCC2)C2CC2)C/C=C\CCCCN(C)C(=O)[C@H](Cc2cc(Cl)ccc2-c2cnn(C)c2)N(C)C1=O` [Example 173] was run?
**A.** 10 nM

**Q.** What about the pIC50 [2] of the same compound?
**A.** 7.00

**Q.** And the GI50 [3]?
**A.** 12700 nM

**Q.** And the GI50 [4]?
**A.** 10 nM

**Q.** And the pIC50 [5]?
**A.** 7.70

**Q.** And the pIC50 [6]?
**A.** 7.70

**Q.** With `CC(C)C[C@@H]1NC(=O)[C@@H](N(C)C(=O)[C@@H](NC(=O)[C@@H]2C[C@@H](F)CN2C(=O)C2(C(F)(F)F)CC(F)(F)C2)C2CC2)CCCCCCCN(C)C(=O)[C@H](Cc2cc(Cl)ccc2-c2cnc3ccnn3c2)N(C)C1=O` [Example 172] ({cBuCO(3,3-F2-1-CF3)}-[Pro(trans-4-F)][Gly(cPr)][NMehhhLys(Me)]L[X35]; lactam 3-C) as the compound, how does the GI50 [1] read?
**A.** 30 nM

**Q.** What about the pIC50 [2] of the same compound?
**A.** 5.61

**Q.** And the GI50 [3]?
**A.** 13700 nM

**Q.** What about the GI50 [4] of the same compound?
**A.** 60 nM

**Q.** What about the pIC50 [5] of the same compound?
**A.** 7.70

**Q.** What about the pIC50 [6] of the same compound?
**A.** 7.22

**Q.** For `CC(C)C[C@@H]1NC(=O)[C@@H](N(C)C(=O)[C@@H](NC(=O)[C@@H]2C[C@@H](F)CN2C(=O)C2(C(F)(F)F)CC(F)(F)C2)C2CC2)CCCCCCCN(C)C(=O)[C@H](Cc2cc(Cl)ccc2-c2ccc(N3CCN(Cc4ccccn4)CC3)cc2)N(C)C1=O` [Example 368] ({cBuCO(3,3-F2-1-CF3)}-[Pro(trans-4-F)][Gly(cPr)][NMehhhLys(Me)]L[X106]; lactam 3-C), which GI50 [1] is on record?
**A.** 10 nM

**Q.** And the pIC50 [2]?
**A.** 6.32

**Q.** What about the GI50 [3] of the same compound?
**A.** 15200 nM

**Q.** And the GI50 [4]?
**A.** 10 nM

**Q.** And the pIC50 [5]?
**A.** 7.70

**Q.** And the pIC50 [6]?
**A.** 7.70

**Q.** What does the source list for `CC(C)C[C@@H]1NC(=O)[C@@H](N(C)C(=O)[C@@H](NC(=O)[C@@H]2C[C@@H](F)CN2C(=O)C2(C(F)(F)F)CC(F)(F)C2)C2CC2)C/C=C\CCCCN(C)C(=O)[C@H](Cc2cc(Cl)ccc2-c2cnn(C)c2)N(C)C1=O` [Example 168]?
**A.** GI50 [1]: 10 nM; pIC50 [2]: 6.80; GI50 [3]: 13100 nM; GI50 [4]: 10 nM; pIC50 [5]: 7.70; pIC50 [6]: 7.70

**Q.** With `CCN(C(=O)[C@@H](NC(=O)[C@@H]1C[C@@H](F)CN1C(=O)C1(C(F)(F)F)CC(F)(F)C1)C1CC1)[C@H]1CCCCCCCN(C)C(=O)[C@H](Cc2cc(Cl)ccc2-c2ccc(N3CCN(C)CC3)cc2)N(C)C(=O)[C@H](CC(C)C)NC1=O` [Example 388] as the compound, how does the GI50 [1] read?
**A.** 20 nM

**Q.** What about the pIC50 [2] of the same compound?
**A.** 5.41

**Q.** And the GI50 [3]?
**A.** 3500 nM

**Q.** And the GI50 [4]?
**A.** 20 nM

**Q.** And the pIC50 [5]?
**A.** 7.70

**Q.** What about the pIC50 [6] of the same compound?
**A.** 7.70
